Assay results as given in patent US7041658B2, “Method of inhibiting hair growth” (Kao Corporation, priority 1998, dated 2006).

How the values were obtained:
[1] = target: T1, neutral endopeptidase (Homo sapiens, UniProt P08473); experiment: Neutral endopeptidase activity-inhibiting test in cultured human fibroblast; type: biochemical; conditions: human fibroblast enzyme solution, substrate glutaryl-Ala-Ala-Phe-4-methoxy-2-naphthylamine, read-out: Percent inhibition of neutral endopeptidase activity (%)
T1 construct: suspended in a 0.1% Triton X-100/0.2 M Tris-HCl buffer (pH: 8.0) and ultrasonically disrupted to use as an enzyme solution; host or cells: normal human fibroblasts, Triton X-100 lysate
T1 sequence (P08473 whole entry): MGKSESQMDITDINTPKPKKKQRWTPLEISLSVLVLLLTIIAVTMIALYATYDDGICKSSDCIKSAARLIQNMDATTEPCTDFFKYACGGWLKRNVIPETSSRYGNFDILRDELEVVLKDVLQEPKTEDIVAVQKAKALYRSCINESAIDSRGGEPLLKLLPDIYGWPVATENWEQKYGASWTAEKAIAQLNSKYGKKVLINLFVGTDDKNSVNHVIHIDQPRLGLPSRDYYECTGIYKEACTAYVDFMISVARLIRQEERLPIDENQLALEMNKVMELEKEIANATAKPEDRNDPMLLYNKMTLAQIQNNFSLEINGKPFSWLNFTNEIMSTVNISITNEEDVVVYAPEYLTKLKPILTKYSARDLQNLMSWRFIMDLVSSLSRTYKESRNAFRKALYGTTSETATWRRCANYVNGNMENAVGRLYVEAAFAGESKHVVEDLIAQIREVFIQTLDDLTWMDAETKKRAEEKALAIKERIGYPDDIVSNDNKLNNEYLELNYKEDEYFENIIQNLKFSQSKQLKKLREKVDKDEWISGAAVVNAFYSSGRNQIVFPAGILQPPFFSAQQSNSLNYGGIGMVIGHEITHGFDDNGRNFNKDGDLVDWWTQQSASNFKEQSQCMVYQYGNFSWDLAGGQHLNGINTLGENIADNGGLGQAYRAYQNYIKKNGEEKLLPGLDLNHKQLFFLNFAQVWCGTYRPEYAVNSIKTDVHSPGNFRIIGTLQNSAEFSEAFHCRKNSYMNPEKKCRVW
Text: (§1) Normal human fibroblasts commercially available from Dainippon Pharmaceutical Co., Ltd. were subcultured in a DMEM containing a 10% fetal bovine serum and used in this test. The cells separated from a Petri dish with a rubber policeman were suspended in phosphate-buffered physiological saline, collected by means of a low-speed centrifugal separator and washed 3 times with phosphate-buffered physiological saline. The thus-treated cells were suspended in a 0.1% Triton X-100/0.2 M Tris-HCl buffer (pH: 8.0) and ultrasonically disrupted to use as an enzyme solution.
The enzyme solution (2 μl), a solution (1 μl) of each subject compound and 20 mM glutaryl-Ala-Ala-Phe-4-methoxy-2-naphthylamine as a substrate for the measurement of enzyme activity were added to 100 μl of an MES buffer solution (100 mM, pH: 6.5), to which sodium chloride (300 mM) had been added, to conduct a reaction at 37° C. for 1 hour. The reaction was stopped by adding phosphoramidone so as to give a final concentration of 0.4 μM. Aminopeptidase M was added to the reaction mixture so as to give a final concentration of 20 mU, thereby conducting a reaction at 37° C. for 15 minutes. The amount of 4-methoxy-2-naphthylamine formed was determined by measuring a fluorescence intensity at an excitation wavelength of 340 nm and a fluorescence wavelength of 425 nm by means of a fluorescence spectrophotometer, thereby finding percent inhibition of neutral endopeptidase activity by the subject compound.

[2] = tested on: regeneration of mouse back hair; experiment: Test of inhibiting regeneration of mouse back hair; type: in vivo; conditions: applied twice a day 100 μl/time to shaved back, C3H mice, vs solvent control
Method: Back hair of a group of 5 C3H mice aged 6 weeks was shaved over 2×4 cm^2 by means of an electric hair clipper and an electric shaver so as not to damage their skins. Each subject was applied to the shaved sites twice a day in an amount of 100 μl/time over 4 weeks. Only the solvent was applied to a control group. After 3 weeks, a photograph of each shaved site was taken at a fixed magnification for observing the state of regenerated hair to compare a regenerated hair area ratio (regenerated hair area/shaved area) of the test group with that of the control group.

[3] = tested on: elastase; experiment: Elastase activity-inhibiting test in cultured human fibroblast; type: biochemical; conditions: human fibroblast enzyme solution, substrate N-succinyl-(Ala)3-p-nitroanilide, 37° C. 1 hour
Text: as §1, with “in” for “in phosphate-buffered”, “with” for “with phosphate-buffered”
125 mM N-Succinyl-(Ala)3-p-nitroanilide was used as a substrate for the measurement of enzyme activity, and each subject (1 μl; its concentration is shown in Table 1) was added to the enzyme solution (100 μl) to conduct a reaction at 37° C. for 1 hour. The reaction was stopped by adding acetic acid (5 μl). The amount of nitroaniline formed was determined by measuring an absorbance at 405 nm by means of a spectrophotometer.

| SMILES | inhibition at 10 µM [1] | Percent inhibition of hair growth after 3 weeks from shaving (%) ([2]; 1 mM in 80% ethanol) | Percent inhibition of elastase activity (%) ([3]; 0.1 mM) | Percent inhibition of hair growth after 3 weeks from shaving (%) ([2]; 10 mM in 80% ethanol) | Percent inhibition of elastase activity (%) ([3]; 1 mM) |
| --- | --- | --- | --- | --- | --- |
| CC(C)CC(NP(=O)(O)OC1OC(C)C(O)C(O)C1O)C(=O)NC(Cc1c[nH]c2ccccc12)C(=O)O (stereo not shown) [Compound 1] | 99% | 58.7% | 85.6% | – | – |
| CC(C)CC(NP(=O)(O)CCc1ccccc1)C(=O)NC(Cc1c[nH]c2ccccc12)C(=O)O (stereo not shown) [Compound 2] | 98.8% | 59.1% | 82.1% | – | – |
| CC(C)CC(NC(=O)C(CC(C)C)NP(=O)(O)CCc1ccccc1)C(=O)O (stereo not shown) [Compound 3] | – | 64.8% | 90.2% | – | – |
| CC(C)CC(NP(=O)(O)CCc1ccccc1)C(=O)NCC(=O)O (stereo not shown) [Compound 4] | – | – | – | 60.5% | 68.4% |
| O=C(O)CCNC(=O)C(CS)Cc1ccccc1 (stereo not shown) [Compound 7] | 97.1% | 59.7% | 85.4% | – | – |
| O=C(O)CNC(=O)C(CS)Cc1ccccc1 (stereo not shown) [Compound 8] | 96.3% | 71.6% | 89.6% | – | – |
